In US7485651B2, “Compounds with activity on muscarinic receptors” (Acadia Pharmaceuticals, Inc., priority 1998, dated 2009):

Key:
[1] = biological target: T1, α-adrenergic receptor subtype 2C (Homo sapiens, UniProt P18825); assay: Test against other receptors: α-adrenergic 2C; format: cell-based
T1 sequence (P18825 1-462): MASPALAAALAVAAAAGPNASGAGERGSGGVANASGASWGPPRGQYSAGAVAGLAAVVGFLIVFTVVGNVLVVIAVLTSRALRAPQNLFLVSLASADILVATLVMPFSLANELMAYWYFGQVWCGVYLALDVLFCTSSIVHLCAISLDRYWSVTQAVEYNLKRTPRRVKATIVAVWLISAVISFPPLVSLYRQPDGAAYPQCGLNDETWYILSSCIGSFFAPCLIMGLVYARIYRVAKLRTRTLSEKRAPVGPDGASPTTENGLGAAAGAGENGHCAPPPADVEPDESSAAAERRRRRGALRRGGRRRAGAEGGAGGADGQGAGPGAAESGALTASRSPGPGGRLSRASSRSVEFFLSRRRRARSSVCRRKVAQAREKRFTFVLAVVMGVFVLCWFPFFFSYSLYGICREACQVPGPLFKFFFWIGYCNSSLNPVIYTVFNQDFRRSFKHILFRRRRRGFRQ

serotonin 5-HT2A = serotonin 5-HT2A (Homo sapiens, UniProt P28223); assay: Test against other receptors: serotonin 5-HT2A
Chain of serotonin 5-HT2A (P28223 whole entry): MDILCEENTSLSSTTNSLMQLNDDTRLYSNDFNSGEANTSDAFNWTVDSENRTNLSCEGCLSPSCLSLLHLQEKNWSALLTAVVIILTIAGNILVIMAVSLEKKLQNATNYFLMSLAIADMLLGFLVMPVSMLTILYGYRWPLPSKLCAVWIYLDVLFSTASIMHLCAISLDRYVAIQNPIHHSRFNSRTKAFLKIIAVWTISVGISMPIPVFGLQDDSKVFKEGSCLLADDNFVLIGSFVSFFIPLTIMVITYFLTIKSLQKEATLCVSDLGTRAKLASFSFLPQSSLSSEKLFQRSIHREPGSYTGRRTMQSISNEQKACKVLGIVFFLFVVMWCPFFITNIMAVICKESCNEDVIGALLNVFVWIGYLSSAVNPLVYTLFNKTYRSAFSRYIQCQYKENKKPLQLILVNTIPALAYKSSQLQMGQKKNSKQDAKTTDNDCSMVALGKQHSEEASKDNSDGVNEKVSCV

m5 receptor = biological target: T2, m5 receptor (Homo sapiens, UniProt P08912); assay: R-SAT / NIH 3T3 cells transfected with m5 muscarinic receptor; format: cell-based
T2 construct: expressed in transfected cells; host or cells: NIH 3T3 (ATCC CRL 1658)
T2 sequence (P08912 1-532): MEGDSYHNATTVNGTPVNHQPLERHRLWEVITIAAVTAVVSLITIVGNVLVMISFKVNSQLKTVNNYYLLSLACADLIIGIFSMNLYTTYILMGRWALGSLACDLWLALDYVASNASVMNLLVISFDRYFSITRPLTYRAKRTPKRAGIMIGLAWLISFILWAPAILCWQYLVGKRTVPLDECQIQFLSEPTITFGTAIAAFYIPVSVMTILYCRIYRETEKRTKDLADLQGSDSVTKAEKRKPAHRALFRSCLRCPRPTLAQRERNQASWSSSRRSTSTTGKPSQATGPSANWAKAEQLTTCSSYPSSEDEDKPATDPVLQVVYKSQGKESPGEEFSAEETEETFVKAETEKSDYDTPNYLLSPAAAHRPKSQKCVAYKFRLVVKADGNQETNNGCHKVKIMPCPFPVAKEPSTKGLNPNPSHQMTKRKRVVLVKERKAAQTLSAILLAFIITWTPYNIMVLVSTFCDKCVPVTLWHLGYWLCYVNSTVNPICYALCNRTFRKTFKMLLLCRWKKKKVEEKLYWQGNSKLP
From the text: A particularly convenient functional assay system is the receptor selection and amplification assay disclosed in U.S. Pat. No. 5,707,798 describing a method of screening for bioactive compounds by utilizing the ability of cells transfected with receptor DNA, e.g. coding for the different muscarinic subtypes, to amplify in the presence of a ligand of the receptor. Cell amplification is detected as increased levels of a marker also expressed by the cells.
Transfection of cells with muscarinic receptor DNAs (general procedure) NIH 3T3 cells (available from the American Type Culture Collection as ATCC CRL 1658) were grown at 37° C. in a humidified atmosphere (5% CO2) incubator in Dulbecco's modified Eagle's medium (DMEM) supplemented with 4.5 g/l glucose, 4 mM glutamine, 50 units/m1 penicillin, 50 units/m1 streptomycin (available from Advanced Biotechnologies, Inc., Gaithersburg, Md.) and 10% calf serum (available from Sigma, St. Louis, […].). The cells were treated with trypsin-EDTA, spun down and plated at 2×10^6 per 15 cm dish in 20 m1 of DMEM containing 10% calf serum.
The m1-m5 muscarinic receptor subtypes were cloned substantially as described by Bonner et al., Science 237, 1987, p. 527, and Bonner et al., Neuron 1, 1988, p. 403. For the m2 and m4 receptors, the cells were co-transfected with DNA encoding a chimera between the Gq protein and the five carboxy-terminal amino acids of the Gi protein (the Gq-i5 construct is described by Conklin et al., Nature 363, 1993, p.274).
On day one, the cells were transfected using the Superfect transfection reagent (available from Qiagen, Valencia, Calif.) in accordance with the manufacturer's instructions. Receptor DNA, β-gal DNA (pSI-β-galactosidase available from Promega, Madison, Wis.), chimeric Gq-i5 DNA for the m2 and m4 receptor subtype assays, and salmon sperm DNA (available from Sigma, St. Louis, […].) as filler to a total of 20 μg DNA was added per plate. Prior to addition to the plates, 60 μl Superfect was added to the DNA and mixed thoroughly by pipetting up and down several times. The mixture was incubated at room temperature for 10-15 minutes. The media were aspirated, and 12 ml fresh DMEM containing 10% calf serum and 50 units/m1 penicillin/streptomycin was added to the plates. The DNA-Superfect solution was mixed once more with a pipette and added to the plate which was swirled to distribute the DNA mixture evenly over the surface. The cells were incubated overnight at 37° C. and 5% CO2. After incubation, the media were aspirated and the plates were rinsed once with a 15 m1 volume of Hank's Buffered Saline. The plates were swirled to ensure thorough rinsing. 20 m1 fresh DMEM supplemented with 10% calf serum and 50 units/m1 penicillin/streptomycin was added to the plates. The cells were incubated for 24-48 hours until the plates were 100% confluent.
Assay of NIH 3T3 cells transfected with muscarinic receptor subtypes (general procedure) DMEM containing 2% Cyto-SF3 was heated at 37° C. in a water bath under sterile conditions. Sterile working stock solutions of test compounds to be assayed were prepared by diluting the compounds in DMEM to 8× the final concentration for testing. The compound (carbachol) to be included in the assay as a positive control was also diluted in DMEM to 8× the final concentration. 50 μL of the DMEM containing 2% Cyto-SF3 was added to each well of 96-well microtiter plates under sterile conditions. Then, 16 of compound solutions were added to the top wells of the plates, and dilution of the solutions was performed by taking 16 μl of the compound solutions from the top wells and pipetting them into the next row of wells. This procedure was repeated with each subsequent row of wells, except that 50 μl medium alone was added to the baseline control wells (the wells that contain medium and cells, but not test compounds) and plate control wells (wells containing medium, but not test compounds and cells). […]

`CCCCC1CCN(CCCC(=O)c2ccccc2C)CC1` [Compound A, 4-n-Butyl-1-[4-(2-methylphenyl)-4-oxo-1-butyl]piperidine] was tested. Which agonist activity [1] did it give?
The agonist activity was “no significant activity”.

And the “inhibition of receptor responses (antagonist experiments)” value [1]?
Its value is “did not inhibit”.

What about the agonist activity (serotonin 5-HT2A) of the same compound?
The agonist activity was “no significant activity”.

What about the “inhibition of receptor responses (antagonist experiments)” value (serotonin 5-HT2A) of the same compound?
The value was “did not inhibit”.

What about the “agonist activity at the m5 receptor” value (m5 receptor) of the same compound?
The value was “only activated the m1 receptor subtype”.

And the Emax at 1.5 µM (m5 receptor; NIH3T3, m5, compound at 1.5 μM, maximum = response to 10 μM carbachol, read-out: Cellular response as a percentage of the maximum response of the cells)?
Its Emax at 1.5 µM is 3%.

And the “antagonism of carbachol-induced responses” value (m5 receptor; m5)?
Its value is “not an antagonist”.
